# Assays:
# [1] = tested on: α-isomaltosylglucosaccharide-forming enzyme; assay: Transfer-acceptor specificity, Enzyme of Strain C9; assay type: biochemical, Bacillus globisporus C9; conditions: acceptor 1.6%, PINE-DEX #100 donor 4%, one unit/g donor, 30° C., pH 6.0, 24 hours
# Procedure: (§1) Using different saccharides, it was tested whether the saccharides were used as transferring-acceptors for the α-isomaltosylglucosaccharide-forming enzyme of the present invention. A solution of D-glucose, D-xylose, L-xylose, D-galactose, D-fructose, D-mannose, D-arabinose, D-fucose, D-psicose, L-sorbose, L-rhamnose, methyl-α-glucopyranoside, methyl-β-glucopyranoside, N-acetyl-glucosamine, sorbitol, trehalose, isomaltose, isomaltotriose, cellobiose, gentibiose, glycerol, maltitol, lactose, sucrose, α-cyclodextrin, β-cyclodextrin, γ-cyclodextrin, or L-ascorbic acid was prepared.
# (§2) To each solution with a saccharide concentration of 1.6% was added “PINE-DEX #100”, a partial starch hydrolysate, as a saccharide donor, to give a concentration of 4%, and admixed with one unit/g saccharide donor, d.s.b., of either of purified specimens of α-isomaltosylglucosaccharide-forming enzyme from Bacillus globisporus C9 obtained by the method in Experiment 4-2, Bacillus globisporus C11 obtained by the method in Experiment 7-2, Bacillus globisporus N75 obtained by the method in Experiment 11-2, or Arthrobacter globiformis A19 obtained by the method in Experiment 15-2, and incubated at 30° C. and pH 6.0, except that pH 8.4 was used for the enzyme from Arthrobacter globiformis A19, for 24 hours. The reaction mixtures of the post-enzymatic reactions were analyzed on gas chromatography (abbreviated as “GLC” hereinafter) for monosaccharides and disaccharides as acceptors, and on HPLC for trisaccharides as acceptors to confirm whether these saccharides could be used as their transfer acceptors. In the case of performing GLC, the following apparatuses and conditions are used: GLC apparatus, “GC-16A” commercialized by Shimadzu Corporation, Tokyo, Japan; column, a stainless-steel column, 3 mm in diameter and 2 m in length, packed with 2% “SILICONE OV-17/[…]”, commercialized by GL Sciences Inc., Tokyo, Japan; carrier gas, nitrogen gas at a flow rate of 40 ml/min under temperature conditions of increasing from 160° C. to 320° C. at an increasing temperature rate of 7.5° C./min; and detection, a hydrogen flame ionization detector. In the case of HPLC analysis, the apparatuses and conditions used are: HPLC apparatus, “CCPD” commercialized by Tosoh Corporation, Tokyo, Japan; column, “ODS-AQ-303” commercialized by YMC Co., Ltd., Tokyo, Japan; eluent, water at a flow rate of 0.5 ml/min; and detection, a differential refractometer.
# [2] = tested on: α-isomaltosylglucosaccharide-forming enzyme; assay: Transfer-acceptor specificity, Enzyme of Strain A19; assay type: biochemical, Arthrobacter globiformis A19; conditions: acceptor 1.6%, PINE-DEX #100 donor 4%, one unit/g donor, 30° C., pH 8.4, 24 hours
# Procedure: as §1, §2
# [3] = tested on: α-isomaltosylglucosaccharide-forming enzyme; assay: Action on saccharides (substrates), Enzyme of Strain N75; assay type: biochemical, Bacillus globisporus N75; parameters: key: −: it showed no change; +: it showed a slight reduction of the color spot of the substrate and the formation of other reaction product; ++: it showed a high reduction of the color spot of the substrate and the formation of other reaction product; +++: it showed a substantial disappearance of the substrate spot and the formation of other reaction product; conditions: two units/g substrate, substrate 2% (w/v), 30° C., pH 6.0, 24 hours, TLC
# Procedure: (§3) It was tested whether saccharides can be used as substrates for the α-isomaltosylglucosaccharide-forming enzyme. For the purpose, a solution of maltose, maltotriose, maltotetraose, maltopentaose, maltohexaose, maltoheptaose, isomaltose, isomaltotriose, panose, isopanose, trehalose, kojibiose, nigerose, neotrehalose, cellobiose, gentibiose, maltitol, maltotriitol, lactose, sucrose, erlose, selaginose, maltosyl glucoside, or isomaltosyl glucoside was prepared.
# (§4) To each of the above solutions was added two units/g substrate of a purified specimen of α-isomaltosylglucosaccharide-forming enzyme from either Bacillus globisporus C9 obtained by the method in Experiment 4-2, Bacillus globisporus C11 obtained by the method in Experiment 7-2, Bacillus globisporus N75 obtained by the method in Experiment 11-2, or Arthrobacter globiformis A19 obtained by the method in Experiment 15-2, and the resulting each solution was adjusted to give a substrate concentration of 2% (w/v) and incubated at 30° C. and pH 6.0, except for using pH 8.4 for the enzyme from Arthrobacter globiformis A19, for 24 hours. The enzyme solutions before and after the enzymatic reactions were respectively analyzed on TLC disclosed in Experiment 1 to confirm whether the enzymes acted on these substrates.
# [4] = tested on: α-isomaltosylglucosaccharide-forming enzyme; assay: Transfer-acceptor specificity, Enzyme of Strain N75; assay type: biochemical, Bacillus globisporus N75; conditions: acceptor 1.6%, PINE-DEX #100 donor 4%, one unit/g donor, 30° C., pH 6.0, 24 hours
# Procedure: as §1, §2
# [5] = tested on: α-isomaltosylglucosaccharide-forming enzyme; assay: Action on saccharides (substrates), Enzyme of Strain A19; assay type: biochemical, Arthrobacter globiformis A19; parameters: key: −: it showed no change; +: it showed a slight reduction of the color spot of the substrate and the formation of other reaction product; ++: it showed a high reduction of the color spot of the substrate and the formation of other reaction product; +++: it showed a substantial disappearance of the substrate spot and the formation of other reaction product; conditions: two units/g substrate, substrate 2% (w/v), 30° C., pH 8.4, 24 hours, TLC
# Procedure: as §3, §4
# [6] = tested on: α-isomaltosylglucosaccharide-forming enzyme; assay: Action on saccharides (substrates), Enzyme of Strain C9; assay type: biochemical, Bacillus globisporus C9; parameters: key: −: it showed no change; +: it showed a slight reduction of the color spot of the substrate and the formation of other reaction product; ++: it showed a high reduction of the color spot of the substrate and the formation of other reaction product; +++: it showed a substantial disappearance of the substrate spot and the formation of other reaction product; conditions: two units/g substrate, substrate 2% (w/v), 30° C., pH 6.0, 24 hours, TLC
# Procedure: as §3, §4
# [7] = tested on: α-isomaltosylglucosaccharide-forming enzyme; assay: Transfer-acceptor specificity, Enzyme of Strain C11; assay type: biochemical, Bacillus globisporus C11; conditions: acceptor 1.6%, PINE-DEX #100 donor 4%, one unit/g donor, 30° C., pH 6.0, 24 hours
# Procedure: as §1, §2
# [8] = tested on: α-isomaltosylglucosaccharide-forming enzyme; assay: Action on saccharides (substrates), Enzyme of Strain C11; assay type: biochemical, Bacillus globisporus C11; parameters: key: −: it showed no change; +: it showed a slight reduction of the color spot of the substrate and the formation of other reaction product; ++: it showed a high reduction of the color spot of the substrate and the formation of other reaction product; +++: it showed a substantial disappearance of the substrate spot and the formation of other reaction product; conditions: two units/g substrate, substrate 2% (w/v), 30° C., pH 6.0, 24 hours, TLC
# Procedure: as §3, §4
SMILES,"Product of transferring reaction, Enzyme of Strain C9 [1]","Product of transferring reaction, Enzyme of Stain A19 [2]","Enzymatic action, Enzyme of Strain N75 [3]","Product of transferring reaction, Enzyme of Strain N75 [4]","Enzymatic action, Enzyme of Strain A19 [5]","Enzymatic action, Enzyme of Strain C9 [6]","Product of transferring reaction, Enzyme of Strain C11 [7]","Enzymatic action, Enzyme of Strain C11 [8]"
O=C[C@H](O)[C@@H](O)[C@H](O[C@@H]1O[C@H](CO)[C@@H](O)[C@H](O)[C@H]1O)[C@H](O)CO [Cellobiose],++ (a saccharide-transferred product was detected in an amount over ten percent through transfer reaction to acceptor),++ (a saccharide-transferred product was detected in an amount over ten percent through transfer reaction to acceptor),−,++ (a saccharide-transferred product was detected in an amount over ten percent through transfer reaction to acceptor),−,−,++ (a saccharide-transferred product was detected in an amount over ten percent through transfer reaction to acceptor),−
OC[C@H]1O[C@H](OC[C@H]2O[C@H](OC[C@H]3OC(O)[C@H](O)[C@@H](O)[C@@H]3O)[C@H](O)[C@@H](O)[C@@H]2O)[C@H](O)[C@@H](O)[C@@H]1O (stereo partly shown) [Isomaltotriose],++ (a saccharide-transferred product was detected in an amount over ten percent through transfer reaction to acceptor),∀ (a saccharide-transferred product was detected in an amount less than one percent through transfer reaction to acceptor),−,++ (a saccharide-transferred product was detected in an amount over ten percent through transfer reaction to acceptor),−,−,++ (a saccharide-transferred product was detected in an amount over ten percent through transfer reaction to acceptor),−
OC[C@H]1O[C@@H](O[C@H]2[C@H](O)[C@@H](O)C(O)O[C@@H]2CO)[C@H](O)[C@@H](O)[C@H]1O (stereo partly shown) [Lactose],++ (a saccharide-transferred product was detected in an amount over ten percent through transfer reaction to acceptor),++ (a saccharide-transferred product was detected in an amount over ten percent through transfer reaction to acceptor),−,++ (a saccharide-transferred product was detected in an amount over ten percent through transfer reaction to acceptor),−,−,++ (a saccharide-transferred product was detected in an amount over ten percent through transfer reaction to acceptor),−
OC[C@H]1O[C@H](OC[C@H]2OC(O)[C@H](O)[C@@H](O)[C@@H]2O)[C@H](O)[C@@H](O)[C@@H]1O (stereo partly shown) [Isomaltose],++ (a saccharide-transferred product was detected in an amount over ten percent through transfer reaction to acceptor),+ (a saccharide-transferred product was detected in an amount over one percent but less than ten percent through transfer reaction to acceptor),−,++ (a saccharide-transferred product was detected in an amount over ten percent through transfer reaction to acceptor),−,−,++ (a saccharide-transferred product was detected in an amount over ten percent through transfer reaction to acceptor),−
OC[C@H]1O[C@H](O[C@H]2O[C@H](CO)[C@@H](O)[C@H](O)[C@H]2O)[C@H](O)[C@@H](O)[C@@H]1O [Trehalose],++ (a saccharide-transferred product was detected in an amount over ten percent through transfer reaction to acceptor),++ (a saccharide-transferred product was detected in an amount over ten percent through transfer reaction to acceptor),−,++ (a saccharide-transferred product was detected in an amount over ten percent through transfer reaction to acceptor),−,−,++ (a saccharide-transferred product was detected in an amount over ten percent through transfer reaction to acceptor),−

# From patent publication US7811797B2, “α-isomaltosylglucosaccharide-forming enzyme, process and uses of the same” (Kabushiki Kaisha Hayashibara Seibutsu Kagaku Kenkyujo, priority 2000, dated 2010)
